Experiment [1] relates to HCV replicon in HUH-7 cells. Kind of experiment: HCV replicon FRET assay. The following applies: Hepatitis C virus. In kind it is cell-based, HCV strain 1b. An excerpt:
An HCV replicon whole cell system was established as described by Lohmann V, Korner F, Koch J, Herian U, Theilmann L, Bartenschlager R., Science 285(5424):110-3 (1999). This system enabled us to evaluate the effects of our HCV Protease compounds on HCV RNA replication. Briefly, using the HCV strain 1b sequence described in the Lohmann paper (Assession number:AJ238799), an HCV cDNA was synthesized by Operon Technologies, Inc. (Alameda, Calif.), and the full-length replicon was then assembled in plasmid pGem9zf(+) (Promega, Madison, Wis.) using standard molecular biology techniques. The replicon consists of (i) the HCV 5′ UTR fused to the first 12 amino acids of the capsid protein, (ii) the neomycin phosphotransferase gene (neo), (iii) the IRES from encephalomyocarditis virus (EMCV), and (iv) HCV NS3 to NS5B genes and the HCV 3′ UTR. Plasmid DNAs were linearized with ScaI and RNA transcripts were synthesized in vitro using the T7 MegaScript transcription kit (Ambion, Austin, Tex.) according to manufacturer's directions. In vitro transcripts of the eDNA were transfected into the human hepatoma cell line, HUH-7. […] Resulting cell lines were characterized for positive and negative strand RNA production and protein production over time.
The HCV replicon FRET assay was developed to monitor the inhibitory effects of compounds described in the disclosure on HCV viral replication. HUH-7 cells, constitutively expressing the HCV replicon, were grown in Dulbecco's Modified Eagle Media (DMEM) (Gibco-BRL) containing 10% Fetal calf serum (FCS) (Sigma) and 1 mg/ml G418 (Gibco-BRL). Cells were seeded the night before (1.5×10^4 cells/well) in 96-well tissue-culture sterile plates. Compound and no compound controls were prepared in DMEM containing 4% FCS, 1:100 Penicillin/Streptomysin (Gibco-BRL), 1:100 L-glutamine and 5% DMSO in the dilution plate (0.5% DMSO final concentration in the assay). Compound/DMSO mixes were added to the cells and incubated for 4 days at 37° C. After 4 days, cells were first assessed for cytotoxicity using alamar Blue (Trek Diagnotstic Systems) for a CC50 reading. The toxicity of compound (CC50) was determined by adding 1/10th volume of alamar Blue to the media incubating the cells. After 4 h, the fluorescence signal from each well was read, with an excitation wavelength at 530 nm and an emission wavelength of 580 nm, using the Cytofluor Series 4000 (Perspective Biosystems). Plates were then rinsed thoroughly with Phosphate-Buffered Saline (PBS) (3 times 150 μl).
For orientation: A replicon is a self-replicating genome or part of one, used to study replication in cells.

For experiment [2], the target named is T1, HCV NS3/4A protease complex, BMS strain (UniProt P27958, C1454S/C1711G, species not given).
T1 construct: other: HCV NS3/4A enzyme assay; class symbols; numeric values; fused on or other part: three-lysine solubilising tail at the C-terminus of NS4A; purified on Ni-NTA from the pET21b vector (His tag implied)
Kind of experiment: FRET peptide assay to monitor HCV NS3/4A proteolytic activity (BMS strain). It counts as biochemical, HCV genotype 1a. The following applies: read-out: IC50 Range, HCV NS3/4A enzyme assay. The source says:
HCV NS3 protease complexes, derived from the BMS strain, H77 strain or J4L6S strain, were generated, as described below. These purified recombinant proteins were generated for use in a homogeneous assay (see below) to provide an indication of how effective compounds of the present disclosure would be in inhibiting HCV NS3 proteolytic activity.
Serum from an HCV-infected patient was obtained from Dr. T. Wright, San Francisco Hospital. An engineered full-length cDNA (compliment deoxyribonucleic acid) template of the HCV genome (BMS strain) was constructed from DNA fragments obtained by reverse transcription-PCR (RT-PCR) of serum RNA (ribonucleic acid) and using primers selected on the basis of homology between other genotype 1a strains. From the determination of the entire genome sequence, a genotype 1a was assigned to the HCV isolate according to the classification of Simmonds et al. (See P Simmonds, K A Rose, S Graham, S W Chan, F McOmish, B C Dow, E A Follett, P L Yap and H Marsden, J. Clin. Microbiol., 31(6), 1493-1503 (1993)). […] The infectious clones, H77 (1a genotype) and J4L6S (1b genotype) were obtained from R. Purcell (NIH) and the sequences are published in Genbank (AAB67036, see Yanagi, M., Purcell, R. H., Emerson, S. U. and Buldi, J. Proc. Natl. Acad. Sci. U.S.A. 94(16),8738-8743 (1997); AF054247, see Yanagi, M., St Claire, M., Shapiro, M., Emerson, S. U., Purcell, R. H. and Bukh, J, Virology 244 (1), 161-172. (1998)).
NS3/4A protease complex-containing fractions were pooled and loaded on a desalting column Superdex-S200 pre-equilibrated with buffer D (25 mM HEPES, pH 7.5, 20% glycerol, 300 mM NaCl, 0.2% TritonX-100, 10 mM βMB). Sample was loaded at a flow rate of 1 mL/min. NS3/4A protease complex-containing fractions were pooled and concentrated to approximately 0.5 mg/ml. The purity of the NS3/4A protease complexes, derived from the BMS, H77 and J4L6S strains, were judged to be greater than 90% by SDS-PAGE and mass spectrometry analyses. The enzyme was stored at −80° C., thawed on ice and diluted prior to use in assay buffer.
The purpose of this in vitro assay was to measure the inhibition of HCV NS3 protease complexes, derived from the BMS strain, H77 strain or J4L6S strain, as described above, by compounds of the present disclosure. This assay provides an indication of how effective compounds of the present disclosure would be in inhibiting HCV NS3 proteolytic activity.
In order to monitor HCV NS3/4A protease activity, an NS3/4A peptide substrate was used. The substrate was RET S1 (Resonance Energy Transfer Depsipeptide Substrate; AnaSpec, Inc. cat #22991)(FRET peptide), described by Taliani et al. in Anal. Biochem. 240(2):60-67 (1996). The sequence of this peptide is loosely based on the NS4A/NS4B natural cleavage site for the HCV NS3 protease except there is an ester linkage rather than an amide bond at the cleavage site. The peptide also contains a fluorescence donor, EDANS, near one end of the peptide and an acceptor, DABCYL, near the other end. The fluorescence of the peptide is quenched by […] resonance energy transfer (RET) between the donor and the acceptor, but as the NS3 protease cleaves the peptide the products are released from RET quenching and the fluorescence of the donor becomes apparent.
The peptide substrate was incubated with one of the three recombinant NS3/4A protease complexes, in the absence or presence of a compound of the present disclosure. The inhibitory effects of a compound were determined by monitoring the formation of fluorescent reaction product in real time using a Cytofluor Series 4000.
Assay buffer: 50 mM HEPES, pH 7.5; 0.15 M NaCl; 0.1% Triton; 15% Glycerol; 10 mM βME. Substrate: 2 μM final concentration (from a 2 mM stock solution in DMSO stored at −20° C.). HCV NS3/4A protease type 1a (1b), 2-3 nM final concentration (from a 5 μM stock solution in 25 mM HEPES, pH 7.5, 20% glycerol, 300 mM NaCl, 0.2% Triton-X100, 10 mM βME). […]

Molecules are shown by their SMILES. Like-named read-outs stand apart in the source and are kept apart here.

`C=C[C@@H]1C[C@]1(NC(=O)[C@@H]1C[C@@H](Oc2ncc(OC)c3ccc(Cl)cc23)CN1C(=O)[C@@H](Nc1nc(-c2ccncc2)cs1)C(C)(C)C)C(=O)NS(=O)(=O)C1CC1` [Example 16]: in experiment [1] (Huh-7, HCV replicon cell assay, numeric values, read-out: EC50 Range), the EC50 (in general, the concentration that produces a half-maximal response) was found to be 6.57 nM. The IC50 (as a rule, the concentration that gives 50% inhibition) in experiment [2] (numeric values) was 1 nM.
For the compound `C=C[C@@H]1C[C@]1(NC(=O)[C@@H]1C[C@@H](Oc2ncc(OC)c3ccc(Cl)cc23)CN1C(=O)[C@@H](Nc1nc(-c2cc(C)c(Cl)cc2F)cs1)C(C)(C)C)C(=O)NS(=O)(=O)C1CC1` [Example 92], the EC50 in experiment [1] (Huh-7, read-out: EC50 Range) was in the range of 1 to 50 nM. In experiment [2] (class symbols), the IC50 lay within 1 to 20 nM.
Regarding `C=C[C@@H]1C[C@]1(NC(=O)[C@@H]1C[C@@H](Oc2ncc(OC)c3ccc(Cl)cc23)CN1C(=O)[C@@H](Nc1nc(-c2ccsc2)cs1)C(C)(C)C)C(=O)NS(=O)(=O)C1CC1` [Example 93], in experiment [1] (Huh-7, read-out: EC50 Range), the EC50 was in the range of 1 to 50 nM. For the same compound, in experiment [2] (class symbols), the IC50 was in the range of 1 to 20 nM.
Taken in the same sequence, the figures for `C=C[C@@H]1C[C@]1(NC(=O)[C@@H]1C[C@@H](Oc2ncc(OC)c3ccc(Cl)cc23)CN1C(=O)[C@@H](Nc1nc(-c2ccc(F)c(Cl)c2)cs1)C(C)(C)C)C(=O)NS(=O)(=O)C1CC1` [Example 52] were 1 to 50 nM and 1 to 20 nM.
Taken in the same sequence, the figures for `C=C[C@@H]1C[C@]1(NC(=O)[C@@H]1C[C@@H](Oc2ncc(OC)c3ccc(Cl)cc23)CN1C(=O)[C@@H](Nc1nc(-c2c(F)c(F)c(F)c(F)c2F)cs1)C(C)(C)C)C(=O)NS(=O)(=O)C1CC1` [Example 47] were 1 to 50 nM and 1 to 20 nM.
Consider `C=C[C@@H]1C[C@]1(NC(=O)[C@@H]1C[C@@H](Oc2ncc(OC)c3ccc(Cl)cc23)CN1C(=O)[C@@H](Nc1nc(-c2ccc(C(=O)O)cc2)cs1)C(C)(C)C)C(=O)NS(=O)(=O)C1CC1` [Example 46], for which the EC50 in experiment [1] (Huh-7, read-out: EC50 Range) fell in the range of 1 to 50 nM. The IC50 in experiment [2] (class symbols) was 1 to 20 nM.
`C=C[C@@H]1C[C@]1(NC(=O)[C@@H]1C[C@@H](Oc2ncc(OC)c3ccc(Cl)cc23)CN1C(=O)[C@@H](Nc1nc(-c2ccc(C(F)(F)F)cc2)cs1)C(C)(C)C)C(=O)NS(=O)(=O)C1CC1` [Example 10, (2S,4R)-4-(7-chloro-4-methoxyisoquinolin-1-yloxy)-N-((1R,2S)-1-(cyclopropylsulfonylcarbamoyl)-2-vinylcyclopropyl)-1-((S)-3,3-dimethyl-2-(4-(4-(trifluoromethyl)phenyl)thiazol-2-ylamino)butanoyl)pyrrolidine-2-carboxamide]: the 50% effective concentration (EC50) in experiment [1] (Huh-7, read-out: EC50 Range) lay in the range of 1 to 50 nM. The IC50 in experiment [2] (class symbols) lay in the range of 1 to 20 nM.
Taken in the same sequence, the figures for `C=C[C@@H]1C[C@]1(NC(=O)[C@@H]1C[C@@H](Oc2ncc(OC)c3ccc(Cl)cc23)CN1C(=O)[C@@H](Nc1nc(-c2cc(OC)ccc2OC)cs1)C(C)(C)C)C(=O)NS(=O)(=O)C1CC1` [Example 30] were 1 to 50 nM and 1 to 20 nM.
Taken in the same sequence, the figures for `C=C[C@@H]1C[C@]1(NC(=O)[C@@H]1C[C@@H](Oc2ncc(OC)c3ccc(Cl)cc23)CN1C(=O)[C@@H](Nc1nc(-c2cc(Cl)cc(Cl)c2OC)cs1)C(C)(C)C)C(=O)NS(=O)(=O)C1CC1` [Example 55] were 1 to 50 nM and 1 to 20 nM.
For `C=C[C@@H]1C[C@]1(NC(=O)[C@@H]1C[C@@H](Oc2ncc(OC)c3ccc(Cl)cc23)CN1C(=O)[C@@H](Nc1nc(-c2cc(C(F)(F)F)cc(C(F)(F)F)c2)cs1)C(C)(C)C)C(=O)NS(=O)(=O)C1CC1` [Example 22], in that order: 1 to 50 nM and 1 to 20 nM.
Turning to `C=C[C@@H]1C[C@]1(NC(=O)[C@@H]1C[C@@H](Oc2ncc(OC)c3ccc(Cl)cc23)CN1C(=O)[C@@H](Nc1nc(-c2ccc3c(c2)OCO3)cs1)C(C)(C)C)C(=O)NS(=O)(=O)C1CC1` [Example 40], in experiment [1] (Huh-7, read-out: EC50 Range), the half-maximal effective concentration (EC50) was 1 to 50 nM. The IC50 in experiment [2] (class symbols) lay within 1 to 20 nM.
`C=C[C@@H]1C[C@]1(NC(=O)[C@@H]1C[C@@H](Oc2ncc(OC)c3ccc(Cl)cc23)CN1C(=O)[C@@H](Nc1nc(-c2ccc(Br)cc2)cs1)C(C)(C)C)C(=O)NS(=O)(=O)C1CC1` [Example 31]: the EC50 in experiment [1] (Huh-7, read-out: EC50 Range) lay in the range of 1 to 50 nM. Moreover, the IC50 in experiment [2] (class symbols) fell in the range of 1 to 20 nM.
Regarding `C=C[C@@H]1C[C@]1(NC(=O)[C@@H]1C[C@@H](Oc2ncc(OC)c3ccc(Cl)cc23)CN1C(=O)[C@@H](Nc1nc(-c2cnccn2)cs1)C(C)(C)C)C(=O)NS(=O)(=O)C1CC1` [Example 26], in experiment [1] (Huh-7, read-out: EC50 Range), the EC50 is 1 to 50 nM. For the same compound, the IC50 in experiment [2] (class symbols) is 1 to 20 nM.
Consider `C=C[C@@H]1C[C@]1(NC(=O)[C@@H]1C[C@@H](Oc2ncc(OC)c3ccc(Cl)cc23)CN1C(=O)[C@@H](Nc1nc(-c2ccc(F)c(F)c2)cs1)C(C)(C)C)C(=O)NS(=O)(=O)C1CC1` [Example 6, (2S,4R)-4-(7-chloro-4-methoxyisoquinolin-1-yloxy)-N-((1R,2S)-1-(cyclopropylsulfonylcarbamoyl)-2-vinylcyclopropyl)-1-((S)-2-(4-(3,4-difluorophenyl)thiazol-2-ylamino)-3,3-dimethylbutanoyl)pyrrolidine-2-carboxamide], for which the EC50 in experiment [1] (Huh-7, read-out: EC50 Range) fell in the range of 1 to 50 nM. Also, the IC50 in experiment [2] (class symbols) lay within 1 to 20 nM.
With `C=C[C@@H]1C[C@]1(NC(=O)[C@@H]1C[C@@H](Oc2cc(-c3ccccc3)nc3cc(OC)ccc23)CN1C(=O)[C@@H](Nc1nc(-c2ccc(OC)cc2)cs1)C(C)(C)C)C(=O)NS(=O)(=O)C1CC1` [Example 4], the EC50 in experiment [1] (Huh-7, read-out: EC50 Range) fell in the range of 1 to 50 nM. In experiment [2] (class symbols), the IC50 lay within 1 to 20 nM.
